Here are results for 23 compounds from publication PMC6264186, “Development of a Highly Sensitive and Specific Immunoassay for Determining Chrysoidine, A Banned Dye, in Soybean Milk Film” (Molecules, 2011).

For test [1], the system named is polyclonal Ab 2 (antibody to chrysoidine, from Hapten 2). Put plainly: indirect competitive ELISA (icELISA) with polyclonal Ab 2. The test is classed as binding, New Zealand white rabbits. The settings on record: for Cross-reactivity / IC50: polyclonal Ab 2, coating antigen Hapten 1-OVA; for Cross-reactivity: CR = IC50(chrysoidine)/IC50(interferent) x 100. The protocol:
Specificity of the optimized assay was tested by measuring the cross-reactivity using a group of structurally related dyes. Twenty-four compounds were selected for testing the cross-reactivity (CR) (Table 1). The CR was calculated as follows: CR(%) = [IC50(chrysoidine) / IC50(interferent)] × 100.

For test [2] the test system is unchanged. The test is described as above. It counts as binding, New Zealand white rabbits. The settings on record: coating antigen Hapten 2-OVA 17 ng/mL, Ab 2 dilution 10000 (homologous).
For test [3], the system named is Ab 1 (antibody to chrysoidine, from Hapten 1). The experiment in a line: indirect competitive ELISA (icELISA) with polyclonal Ab 1. (In general: ELISA stands for enzyme-linked immunosorbent assay.)
Method: Checkerboard assays, in which antibodies were titrated against various amounts of the coating antigen, were used to measure the reactivity of antibodies and to select an appropriate antigen coating and antibody dilutions for competitive indirect assays. […] The concentrations of the antibodies and the coating antigen chosen were further optimized.
The procedure for the competitive assay was as follows. Microtiter plates were coated with hapten-OVA (100–1000 ng/mL, 100 µL/well) in carbonate-bicarbonate buffer (50 mM, pH 9.6) by overnight incubation at 4 °C. The plates were blocked with blocking solution by incubation for 3 h. Serial dilution of the analyte in methanol-PBST (1:9, v:v, 50 µL/well) were added, followed by 50 µL/well of antibody diluted (1/1,000–1/10,000) with PBST solution. After incubation for about 30–60 min, 100 µL/well of a diluted (1/10,000) goat anti-rabbit IgG-HRP was added. The mixture was incubated for 60 min, and 100 µL/well of a TMB solution was added. The reaction was stopped after an appropriate time (typically 8 min) by adding 10% (v:v) H2SO4 (50 µL), and the absorbance was read at 450 nm.
The mark [4] stands for this setting: coating antigen Hapten 1-OVA 20 ng/mL, Ab 2 dilution 4000 (heterologous).
The mark [5] stands for this setting: coating antigen Hapten 1-OVA 20 ng/mL, Ab 1 dilution 8000 (homologous).
[6] abbreviates: coating antigen Hapten 2-OVA 20 ng/mL, Ab 1 dilution 20000 (heterologous).

Values after ≈ are worked out from the molar mass of the structure shown.

As for Acid Red 94, the Cross-reactivity in test [1] is listed as not above 0.01%. Moreover, the half-maximal inhibitory concentration (IC50) (commonly the concentration needed to halve the response being measured) in test [1] (class symbol ND) was more than 13.3 µM.
For `CN(C)c1ccc(C(=N)c2ccc(N(C)C)cc2)cc1` [Auramine O], in test [1], the concentration for half-maximal inhibition (IC50) was 0.798 µM and the Cross-reactivity was found to be 0.2%.
In the case of `O=C1OC2(c3ccccc31)c1cc(I)c(O)c(I)c1Oc1c2cc(I)c(O)c1I` [Erythrosine], the Cross-reactivity in test [1] is reported as not above 0.01%. Also, the IC50 in test [1] (class symbol ND) is more than 13.3 µM.
With `O=S(=O)(O)c1ccc(/N=N/c2cc(S(=O)(=O)O)c3ccccc3c2O)c2ccccc12` [Azorubine], in test [1], the Cross-reactivity is not above 0.01%. In test [1] (class symbol ND), this compound showed an IC50 of more than 13.3 µM.
On to `O=S(=O)(O)c1ccc(/N=N/c2ccc(O)c3ccccc23)cc1` [Orangeim], for which, in test [1], the 50% inhibitory concentration (IC50) is 1.12 µM and the Cross-reactivity was determined as 0.1%. Further, the Cross-reactivity in test [1] (listed as orangeim) amounted to 0.12%.
Consider `Nc1ccc(/N=N/c2ccccc2)c(N)c1` [Chrysoidine], for which the “IC50 (50% inhibitory concentration)” value in test [1] (setting [4]) is listed as 0.33 ng/mL (≈ 0.00155 µM). The “LOD (10% inhibitory concentration)” value in test [1] (setting [4]) is recorded as 0.04 ng/mL; in test [1] (coating antigen Hapten 1-OVA 20 ng/mL, Ab 2 dilution 4000 (heterologous), listed as chrysoidine), not above 0.04 ng/mL; in test [2] it was 3.8 ng/mL; in test [3] (setting [5]) it was 0.8 ng/mL; in test [3] (setting [6]) it was 0.4 ng/mL. In addition, the “limit of quantitation (LOQ, 20%-80% inhibitory concentration)” value in test [1] (coating antigen Hapten 1-OVA, Ab 2 (heterologous)) is recorded as 0.09 to 4.9 ng/mL. Further, the 50% inhibitory concentration (IC50) in test [1] stood at 0.00133 µM; in test [2] it was 10.6 ng/mL (≈ 0.0499 µM); in test [3] (setting [5]), 7.4 ng/mL (≈ 0.0349 µM); in test [3] (setting [6]), 1.6 ng/mL (≈ 0.00754 µM). Moreover, the Cross-reactivity in test [1] is recorded as 100.0%.
`O=S(=O)(O)c1ccc(/N=N/c2ccc(Nc3ccccc3)cc2)cc1` [Orange yellow]: in test [1], the Cross-reactivity was not above 0.01%. The compound further registered an IC50 in test [1] (class symbol ND) of more than 13.3 µM.
In the case of `O=C1OC2(c3ccc(Cl)cc3Oc3cc(Cl)ccc32)c2ccccc21` [Reddish orange], in test [1], the Cross-reactivity is listed as not above 0.01%. Moreover, in test [1] (class symbol ND), the half-inhibitory concentration (IC50) was more than 13.3 µM.
Regarding `O=[N+]([O-])c1ccc(N=Nc2c(O)ccc3ccccc23)cc1` [1-(4-nitrophenyl-azo)-2-naphthol], in test [1], the Cross-reactivity is on record as not above 0.01%. The compound further showed an IC50 in test [1] (class symbol ND) of more than 13.3 µM.
The like results for `O=C(O)C1=NN(c2ccc(S(=O)(=O)O)cc2)C(=O)C1/N=N/c1ccc(S(=O)(=O)O)cc1` (centres unmarked) [Tartrazine] were, in that order, not above 0.01% and more than 13.3 µM.
Turning to Carmine, the Cross-reactivity in test [1] was not above 0.01%. Also, the concentration for half-maximal inhibition (IC50) in test [1] (class symbol ND) was more than 13.3 µM.
On to `Cc1c(C(=O)O)c(O)cc2c1C(=O)c1c(O)c([C@@H]3O[C@H](CO)[C@@H](O)[C@H](O)[C@H]3O)c(O)c(O)c1C2=O` [Carminic acid], for which the Cross-reactivity in test [1] is recorded as not above 0.01%. Further, the concentration for half-maximal inhibition (IC50) in test [1] (class symbol ND) was more than 13.3 µM.
For `CCN(Cc1cccc(S(=O)(=O)O)c1)c1ccc(C(=C2C=CC(=[N+](CC)Cc3cccc(S(=O)(=O)O)c3)C=C2)c2ccc(O)cc2S(=O)(=O)[O-])cc1` [Brilliant blue-85], the Cross-reactivity in test [1] is recorded as not above 0.01%. In test [1] (class symbol ND), this compound returned an IC50 of more than 13.3 µM.
As for `Oc1ccc2ccccc2c1/N=N/c1ccccc1` [Sudan Red I], the Cross-reactivity in test [1] is given as not above 0.01%. Besides, the concentration for half-maximal inhibition (IC50) in test [1] (class symbol ND) was more than 13.3 µM.
With `Cc1ccc([N+](=O)[O-])cc1N` [Scarlet Base G], the Cross-reactivity in test [1] is on record as not above 0.01%. Also, in test [1] (class symbol ND), the 50% inhibitory concentration (IC50) is more than 13.3 µM.
As to `COc1cc(S(=O)(=O)O)c(C)cc1/N=N/c1c(O)ccc2cc(S(=O)(=O)O)ccc12` [Allura Red], the Cross-reactivity in test [1] is reported as not above 0.01%. In test [1] (class symbol ND), this compound showed a half-maximal inhibitory concentration (IC50) of more than 13.3 µM.
As for `Nc1nc(N)nc(N)n1` [Melamine], the Cross-reactivity in test [1] is not above 0.01%. Further, the IC50 in test [1] (class symbol ND) was more than 13.3 µM.
With `O=S(=O)(O)c1ccc2c(/N=N/c3ccc(S(=O)(=O)O)c4ccccc34)c(O)c(S(=O)(=O)O)cc2c1` [Amaranth], the Cross-reactivity in test [1] is not above 0.01%. This compound displayed an IC50 in test [1] (class symbol ND) of more than 13.3 µM.
`Nc1ccc(N=Nc2ccc(CC(=O)O)cc2)c(N)c1` [Hapten2, 2-(4-((2,4-Diaminophenyl)diazenyl)phenyl)acetic acid]: the half-inhibitory concentration (IC50) in test [1] amounted to 0.00105 µM. For the same compound, the Cross-reactivity came out at 127.0% in test [1] and 127% in test [1] (listed as Hapten 2).
In the case of `O=C(O)C1=NN(c2ccc(S(=O)(=O)O)cc2)C(=O)C1/N=N/c1ccc(S(=O)(=O)O)cc1` (centres unmarked) [Acid Yellow 23], in test [1], the IC50 was 3.05 µM and the Cross-reactivity was 0.04%.
On to `O=C1/C(=C2\Nc3ccccc3C2=O)Nc2ccccc21` [Indigo], for which the Cross-reactivity in test [1] was not above 0.01%. The IC50 in test [1] (class symbol ND) is more than 13.3 µM.
`Nc1ccc(N=Nc2ccc(C(=O)O)cc2)c(N)c1` [Hapten1, 4-((2,4-Diaminophenyl)diazenyl)benzoic acid]: in test [1], the half-maximal inhibitory concentration (IC50) worked out at 0.00078 µM and the Cross-reactivity came to 169.8%. The Cross-reactivity in test [1] (listed as Hapten 1) came out at 170%.
For the compound `O=S(=O)(O)c1ccc(/N=N/c2c(O)ccc3cc(S(=O)(=O)O)ccc23)cc1` [Sunset yellow], the Cross-reactivity in test [1] is not above 0.01%. The IC50 in test [1] (class symbol ND) was more than 13.3 µM.
